Results from ChEMBL document CHEMBL1201862, “PubChem BioAssay data set” (2004).
One block for each compound: values may come before it. The source made the active and inactive calls.

Key:
[1] = system: INS1; test: protection of INS-1E cells from cytokine death, dose response, ATP luminescence, dry powder (AID 488844); assay type: functional, cell-based; conditions: Rattus norvegicus
[2] = system: INS1; test: inhibitors of cytokine-induced nitrite release, dose response, cell-based, Griess absorbance, INS-1E, dry powder, set 2 (AID 488868); assay type: functional; conditions: Rattus norvegicus
[3] = inhibitors of cytokine-induced nitrite release, dose response, cell-based, Griess absorbance, INS-1E, dry powder, set 3 (AID 488870); assay type: functional; conditions: Rattus norvegicus
[4] = target: Latent membrane protein 1 (Human herpesvirus 4 (strain B95-8), UniProt P03230); test: TES1-eGFP NF-kB reporter inhibition versus Tet-On dsRED, dose response, selectivity assay for LMP1 NF-kB inhibitor project, imaging, HEK293T, dual-color eGFP/dsRED, cherry-picks (AID 588398); assay type: functional, cell-based
[5] = target: T1, Acyl-homoserine lactone acylase PvdQ (Pseudomonas aeruginosa (strain LESB58), UniProt Q9I194); test: P. aeruginosa PvdQ acylase inhibitors, dose response, biochemical, fluorescence, plate reader and imaging, cherry-picks (AID 493231)
T1 sequence (Q9I194 whole entry): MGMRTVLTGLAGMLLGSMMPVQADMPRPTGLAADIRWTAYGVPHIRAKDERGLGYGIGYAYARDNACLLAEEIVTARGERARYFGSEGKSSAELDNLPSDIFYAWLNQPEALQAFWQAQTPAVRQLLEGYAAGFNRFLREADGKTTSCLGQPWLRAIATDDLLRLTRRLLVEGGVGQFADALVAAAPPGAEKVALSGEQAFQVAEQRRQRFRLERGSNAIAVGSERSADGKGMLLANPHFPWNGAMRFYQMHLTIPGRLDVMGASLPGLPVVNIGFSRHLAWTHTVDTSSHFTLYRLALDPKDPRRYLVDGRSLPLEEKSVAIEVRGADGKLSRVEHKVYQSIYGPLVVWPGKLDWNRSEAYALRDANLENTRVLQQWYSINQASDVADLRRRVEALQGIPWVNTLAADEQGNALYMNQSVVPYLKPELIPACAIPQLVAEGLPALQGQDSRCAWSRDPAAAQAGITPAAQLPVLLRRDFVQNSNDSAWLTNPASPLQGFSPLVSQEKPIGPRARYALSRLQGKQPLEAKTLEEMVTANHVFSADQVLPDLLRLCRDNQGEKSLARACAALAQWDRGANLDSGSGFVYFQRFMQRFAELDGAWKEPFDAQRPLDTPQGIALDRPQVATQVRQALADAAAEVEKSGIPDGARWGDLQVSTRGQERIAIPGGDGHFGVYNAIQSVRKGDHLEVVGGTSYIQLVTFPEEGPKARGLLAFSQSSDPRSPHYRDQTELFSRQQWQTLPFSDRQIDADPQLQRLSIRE

[6] = system: HEK293; test: inhibitors of LMP1-driven NF-kB reporter, dose response, cell-based, HEK293, luciferase, cherry-pick (AID 588343); assay type: functional; conditions: Homo sapiens
[7] = target: DNA dC->dU-editing enzyme APOBEC-3G (Homo sapiens, UniProt Q9HC16); test: APOBEC3G deaminase inhibitors, SAR follow-up, biochemical, fluorescence, single-stranded DNA substrate (AID 602136); assay type: functional; conditions: read-out: IC50_Mean
[8] = target: DNA dC->dU-editing enzyme APOBEC-3A (Homo sapiens, UniProt P31941); test: SAR analysis of small molecule inhibitors of APOBEC3A DNA Deaminase via a fluorescence-based single-stranded DNA deaminase assay.; assay type: functional; conditions: read-out: IC50_Mean
[9] = target: T2, Sentrin-specific protease 8 (Homo sapiens, UniProt Q96LD8); test: SENP8 protease inhibitors, SAR follow-up, biochemical, luminescence, set 2 (AID 588601); assay type: functional
T2 sequence (Q96LD8 whole entry): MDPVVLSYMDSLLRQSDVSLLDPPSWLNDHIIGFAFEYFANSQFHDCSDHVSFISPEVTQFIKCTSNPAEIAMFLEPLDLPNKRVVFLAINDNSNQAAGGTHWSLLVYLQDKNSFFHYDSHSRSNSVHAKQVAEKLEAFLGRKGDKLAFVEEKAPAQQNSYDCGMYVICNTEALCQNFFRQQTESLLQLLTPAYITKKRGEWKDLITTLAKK

[10] = target: T3, Sentrin-specific protease 6 (Homo sapiens, UniProt Q9GZR1); test: SENP6 protease inhibitors, SAR follow-up, biochemical, luminescence, set 2 (AID 588598); assay type: functional
T3 sequence (Q9GZR1 whole entry): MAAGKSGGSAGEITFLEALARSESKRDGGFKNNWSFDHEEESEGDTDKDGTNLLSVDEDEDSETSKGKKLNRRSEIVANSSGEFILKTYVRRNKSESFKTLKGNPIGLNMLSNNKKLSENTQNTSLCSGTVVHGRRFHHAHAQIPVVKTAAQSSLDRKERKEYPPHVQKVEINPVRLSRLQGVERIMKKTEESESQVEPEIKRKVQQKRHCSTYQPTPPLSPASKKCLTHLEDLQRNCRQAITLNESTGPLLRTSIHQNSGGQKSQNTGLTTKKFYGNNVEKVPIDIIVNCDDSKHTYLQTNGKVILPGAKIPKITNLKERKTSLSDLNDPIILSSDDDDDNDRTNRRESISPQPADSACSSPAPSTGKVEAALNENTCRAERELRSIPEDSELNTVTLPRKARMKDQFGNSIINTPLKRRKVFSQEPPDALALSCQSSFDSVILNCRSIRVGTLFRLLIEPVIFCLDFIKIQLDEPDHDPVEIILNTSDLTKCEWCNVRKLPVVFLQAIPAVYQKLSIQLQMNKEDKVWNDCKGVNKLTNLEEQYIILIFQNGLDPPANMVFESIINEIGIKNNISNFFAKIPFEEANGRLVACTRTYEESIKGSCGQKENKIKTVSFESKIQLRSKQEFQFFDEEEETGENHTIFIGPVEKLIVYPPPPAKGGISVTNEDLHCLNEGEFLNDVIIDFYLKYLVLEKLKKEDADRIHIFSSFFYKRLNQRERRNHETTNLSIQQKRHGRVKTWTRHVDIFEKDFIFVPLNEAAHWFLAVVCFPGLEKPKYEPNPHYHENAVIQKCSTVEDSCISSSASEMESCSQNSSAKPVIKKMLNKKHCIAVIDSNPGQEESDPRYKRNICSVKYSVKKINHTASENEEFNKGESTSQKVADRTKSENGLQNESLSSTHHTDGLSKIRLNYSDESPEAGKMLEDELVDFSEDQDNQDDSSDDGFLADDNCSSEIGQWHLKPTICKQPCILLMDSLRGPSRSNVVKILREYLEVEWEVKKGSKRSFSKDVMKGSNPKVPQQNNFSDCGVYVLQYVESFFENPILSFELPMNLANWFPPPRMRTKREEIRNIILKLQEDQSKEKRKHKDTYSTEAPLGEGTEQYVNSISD

[11] = target: T4, Sentrin-specific protease 7 (Homo sapiens, UniProt Q9BQF6); test: SENP7 protease inhibitors, SAR follow-up, biochemical, luminescence, set 2 (AID 588600); assay type: functional
T4 sequence (Q9BQF6 whole entry): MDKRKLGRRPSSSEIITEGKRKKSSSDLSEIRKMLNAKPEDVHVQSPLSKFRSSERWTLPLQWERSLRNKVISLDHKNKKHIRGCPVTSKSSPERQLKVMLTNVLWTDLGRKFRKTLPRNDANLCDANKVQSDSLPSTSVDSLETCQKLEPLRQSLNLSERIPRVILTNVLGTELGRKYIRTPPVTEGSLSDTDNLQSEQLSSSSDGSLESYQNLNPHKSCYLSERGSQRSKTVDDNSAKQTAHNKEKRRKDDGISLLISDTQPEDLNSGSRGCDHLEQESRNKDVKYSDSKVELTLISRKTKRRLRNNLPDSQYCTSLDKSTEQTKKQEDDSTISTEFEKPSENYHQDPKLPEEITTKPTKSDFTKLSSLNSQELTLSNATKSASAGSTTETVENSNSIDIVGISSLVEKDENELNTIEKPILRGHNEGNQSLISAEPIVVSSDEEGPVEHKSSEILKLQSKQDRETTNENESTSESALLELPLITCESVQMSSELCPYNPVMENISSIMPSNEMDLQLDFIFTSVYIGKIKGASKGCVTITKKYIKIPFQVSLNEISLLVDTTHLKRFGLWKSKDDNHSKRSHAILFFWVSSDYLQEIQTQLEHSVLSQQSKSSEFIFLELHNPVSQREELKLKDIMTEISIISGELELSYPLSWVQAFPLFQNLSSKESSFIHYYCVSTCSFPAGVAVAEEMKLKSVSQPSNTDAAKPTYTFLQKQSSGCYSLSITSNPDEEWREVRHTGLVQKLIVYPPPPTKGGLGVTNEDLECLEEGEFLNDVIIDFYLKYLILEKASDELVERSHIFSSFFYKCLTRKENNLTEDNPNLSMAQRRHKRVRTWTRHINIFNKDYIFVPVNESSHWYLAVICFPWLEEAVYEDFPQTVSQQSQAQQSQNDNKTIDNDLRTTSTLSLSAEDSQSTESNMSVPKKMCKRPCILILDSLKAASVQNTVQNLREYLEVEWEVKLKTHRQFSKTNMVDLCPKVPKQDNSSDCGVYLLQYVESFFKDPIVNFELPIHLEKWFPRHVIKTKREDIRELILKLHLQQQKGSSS

[12] = target: T5, Caspase-3 (Homo sapiens, UniProt P42574); test: caspase-3 inhibitors as off-family protease, SAR follow-up, selectivity assay for SENP protease inhibitor project, biochemical, luminescence, set 2 (AID 588599); assay type: functional
T5 sequence (P42574 whole entry): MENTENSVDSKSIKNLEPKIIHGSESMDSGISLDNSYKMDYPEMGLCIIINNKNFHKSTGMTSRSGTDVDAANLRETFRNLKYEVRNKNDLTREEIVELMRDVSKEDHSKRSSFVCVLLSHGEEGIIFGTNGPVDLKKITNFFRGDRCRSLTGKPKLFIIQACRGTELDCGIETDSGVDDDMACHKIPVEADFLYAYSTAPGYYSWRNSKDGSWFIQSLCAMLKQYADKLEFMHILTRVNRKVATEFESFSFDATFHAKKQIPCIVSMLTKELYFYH

Sequence of DNA dC->dU-editing enzyme APOBEC-3A (P31941 whole entry): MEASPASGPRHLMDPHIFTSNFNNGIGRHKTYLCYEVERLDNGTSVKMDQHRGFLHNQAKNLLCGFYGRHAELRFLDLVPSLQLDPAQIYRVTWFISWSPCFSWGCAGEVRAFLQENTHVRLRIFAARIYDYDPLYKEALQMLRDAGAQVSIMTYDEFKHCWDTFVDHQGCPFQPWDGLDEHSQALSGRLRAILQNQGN
Sequence of DNA dC->dU-editing enzyme APOBEC-3G (Q9HC16 whole entry): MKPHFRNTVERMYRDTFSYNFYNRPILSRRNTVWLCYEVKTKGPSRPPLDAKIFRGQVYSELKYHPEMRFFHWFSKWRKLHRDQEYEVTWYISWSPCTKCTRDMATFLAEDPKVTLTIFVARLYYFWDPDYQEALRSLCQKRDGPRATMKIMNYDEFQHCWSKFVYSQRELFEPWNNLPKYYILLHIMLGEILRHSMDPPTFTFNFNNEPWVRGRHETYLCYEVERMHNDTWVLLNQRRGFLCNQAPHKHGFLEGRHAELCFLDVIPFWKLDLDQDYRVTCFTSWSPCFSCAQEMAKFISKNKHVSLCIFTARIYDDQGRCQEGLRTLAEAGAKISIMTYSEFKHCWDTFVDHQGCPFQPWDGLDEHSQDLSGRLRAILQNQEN
Sequence of Latent membrane protein 1 (P03230 whole entry): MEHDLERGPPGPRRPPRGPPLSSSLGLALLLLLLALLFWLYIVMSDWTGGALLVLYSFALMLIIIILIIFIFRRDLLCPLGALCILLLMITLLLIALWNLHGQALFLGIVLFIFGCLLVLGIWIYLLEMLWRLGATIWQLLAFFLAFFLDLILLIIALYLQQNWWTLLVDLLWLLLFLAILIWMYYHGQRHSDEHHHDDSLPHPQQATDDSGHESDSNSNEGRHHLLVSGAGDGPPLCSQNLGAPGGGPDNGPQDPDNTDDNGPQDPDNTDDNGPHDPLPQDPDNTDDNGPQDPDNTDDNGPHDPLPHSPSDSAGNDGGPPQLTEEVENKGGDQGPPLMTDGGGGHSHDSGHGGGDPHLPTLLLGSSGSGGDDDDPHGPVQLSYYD

Structure (SMILES): C[C@@H]1CN([C@@H](C)CO)C(=O)c2cccc(NC(=O)Nc3cccc4ccccc34)c2O[C@H]1CN(C)S(=O)(=O)c1ccc2c(c1)OCO2
AC50 [1]: 49.4 µM (active) | AC50 [2]: 29.8 µM (active) | AC50 [3]: > 195 µM (inactive)

Structure (SMILES): Cc1cc(NC(=O)c2ccc3c(c2)OCCO3)no1
AC50 [4]: 32.7 µM (active) | AC50 [5]: 49.6 µM (active) | AC50 [6]: 4.15 µM (active)

Structure (SMILES): CCc1nnc(NC(=O)Cc2c(F)cccc2Cl)s1
IC50 [7]: > 99 µM (inactive) | IC50 [8]: > 99 µM (inactive)

IC50 [10]: > 99 µM (inactive) | IC50 [11]: > 99 µM (inactive) | IC50 [12]: > 99 µM (inactive)
Structure (SMILES): O=C(N/N=C/c1c[nH]c2ccccc12)C1CC1c1ccccc1 (configuration not stated)
IC50 [9]: > 99 µM (inactive)
